Columns and labels:
[1] = tested on: azole resistant C. albicans MTCC 227; test: Checkerboard assay on azole resistant C. albicans MTCC 227; format: cell-based, Candida albicans; settings: for MIC: Candida albicans, MTCC227, agent alone
Procedure: The synergy is measured by determining the fractional inhibitory concentration (FIC) value of the combination. This experimental set up, called checkerboard method, allows measurement of a desired effect (inhibition of fungal growth in this case) at different combinations of various concentrations of the two agents (antifungal agent and fatty acid/ester). […] No agent is added to the penultimate column on the right and the bottom row. The final column on the right is used for growth control (only inoculum in broth) and sterility control (broth alone, no inoculum). […] FIC values for both agents in a particular well were calculated in this way followed by determination of the FIC index (sum of the FICs of each drug in the concerned well). […] Agents Chemother.
(§1) Using the checkerboard layout experimental setup described above (FIG. 1A), various medium-chain fatty acids were tested for their ability to potentiate the activity of a known antifungal agent. Concentrations above and below the MIC of each test agent were tested using serial dilution. The same procedure was expanded to test combinations of various medium-chain fatty acids C-1 to C-14 (such caprylic acid, undecylenic acid and lauric acid) and esters thereof, with antifungal agents from various classes including azoles, allylamines, benzylamines, zinc pyrithione and piroctone olamine against both susceptible and resistant Trichophyton spp. (filamentous fungus) and Candida spp. (yeast).
Potentiation of the activity of antimycotic agents using ester derivatives of medium chain fatty acids was tested in a standard, well accepted in vitro assay system to check for synergy. This experimental set up, called checkerboard method, allows measurement of a desired effect (inhibition of fungal growth in this case) at different combinations of various concentrations of two agents. A chosen medium chain fatty acid (C-1 to C-14) or its ester derivative was tested for its ability to potentiate the activity of a known antifungal agent (various classes) using the checkerboard layout. Various concentrations above and below the MIC of each test agent were tested using serial dilution in Sabouraud dextrose broth. […] FIC values for both test agents in a particular well are calculated in this way followed by determination of the FIC index (sum of the FICs of each drug in the concerned well).

[2] = tested on: Trichophyton rubrum (ATCC-28188); test: Checkerboard assay of fatty acid/ester with antifungals on Trichophyton rubrum (ATCC 28188); format: cell-based; parameters: key to FIC index: FIC index = sum of FICs; FIC = agent conc in well / agent MIC; settings: for MIC: Trichophyton rubrum, ATCC28188, agent alone
Procedure: The synergy is measured by determining the fractional inhibitory concentration (FIC) value of the combination. This experimental set up, called checkerboard method, allows measurement of a desired effect (inhibition of fungal growth in this case) at different combinations of various concentrations of the two agents (antifungal agent and fatty acid/ester). […] No agent is added to the penultimate column on the right and the bottom row. The final column on the right is used for growth control (only inoculum in broth) and sterility control (broth alone, no inoculum). […] FIC value for each agent in a particular well of the checkerboard layout was calculated by dividing the agent concentration in that well by the established MIC value of the agent against the test organism (Hsieh et al., Synergy assessed by checkerboard: A critical Analysis, Diagn. Microbiol. Infect Dis. (1993) 16:343-349). FIC values for both agents in a particular well were calculated in this way followed by determination of the FIC index (sum of the FICs of each drug in the concerned well). […] Agents Chemother. (2010) 54(2): 602-609].
as §1
Potentiation of the activity of antimycotic agents using ester derivatives of medium chain fatty acids was tested in a standard, well accepted in vitro assay system to check for synergy. This experimental set up, called checkerboard method, allows measurement of a desired effect (inhibition of fungal growth in this case) at different combinations of various concentrations of two agents. A chosen medium chain fatty acid (C-1 to C-14) or its ester derivative was tested for its ability to potentiate the activity of a known antifungal agent (various classes) using the checkerboard layout. Various concentrations above and below the MIC of each test agent were tested using serial dilution in Sabouraud dextrose broth. […] FIC value for a drug in a particular well of the checkerboard layout is calculated by dividing the drug concentration in that well by the established MIC value of the drug against the test organism (Hsieh et al., Synergy assessed by checkerboard: A critical Analysis, Diagn. Microbiol. Infect Dis. (1993) 16:343-349). FIC values for both test agents in a particular well are calculated in this way followed by determination of the FIC index (sum of the FICs of each drug in the concerned well).

[3] = agent's MIC in combination antifungal + caprylic acid (partner: other agent of same combination no.)
[4] = agent's MIC in combination antifungal + glyceryl monocaprylate (partner: other agent of same combination no.)
[5] = agent's MIC in combination antifungal + lauric acid (partner: other agent of same combination no.)
[6] = agent's MIC in combination antifungal + propylene glycol monocaprylate (partner: other agent of same combination no.)
[7] = agent's MIC in combination antifungal + propylene glycol monolaurate (partner: other agent of same combination no.)
[8] = agent's MIC in combination antifungal + undecylenic acid (partner: other agent of same combination no.)
[9] = antifungal in combination with caprylic acid
[10] = antifungal in combination with glyceryl monocaprylate
[11] = antifungal in combination with lauric acid
[12] = antifungal in combination with propylene glycol monocaprylate
[13] = antifungal in combination with propylene glycol monolaurate
[14] = antifungal in combination with undecylenic acid
[15] = combination antifungal + caprylic acid
[16] = combination antifungal + glyceryl monocaprylate
[17] = combination antifungal + lauric acid
[18] = combination antifungal + propylene glycol monocaprylate
[19] = combination antifungal + propylene glycol monolaurate
[20] = combination antifungal + undecylenic acid

`C=C1CCN([C@H](C)[C@](O)(Cn2cncn2)c2ccc(F)cc2F)CC1` [Efinaconazole] gave an MIC ([1]; Table 9, caprylic acid (C8) series) of 128 µg/mL, an MIC ([1]; Table 10, propylene glycol monocaprylate series) of 128 µg/mL and an MIC ([1]; Table 11, glyceryl monocaprylate series) of 128 µg/mL. For the same molecule, the MIC ([1]; Table 12, undecylenic acid (C11) series) was 128 µg/mL, the MIC ([1]; Table 13, lauric acid (C12) series) was 128 µg/mL and the MIC ([1]; Table 14, propylene glycol monolaurate series) was 128 µg/mL. The “Combination MIC” value [1, 3] was 0.5 µg/mL, the “Combination MIC” value [1, 4] was 1 µg/mL and the “Combination MIC” value [1, 5] was 0.5 µg/mL. For the same molecule, the “Combination MIC” value [1, 6] was 4 µg/mL, the “Combination MIC” value [1, 7] was 0.5 µg/mL and the “Combination MIC” value [1, 8] was 4 µg/mL. For the same molecule, the FIC index [1, 9] was 0.3, the Interaction [1, 9] was “Synergistic (Combinations that gave FIC indices less than 1 were designated “synergistic”)” and the FIC index [1, 10] was 0.257. For the same molecule, the Interaction [1, 10] was “Synergistic (Combinations that gave FIC indices less than 1 were designated “synergistic”)”, the FIC index [1, 11] was 0.128 and the Interaction [1, 11] was “Synergistic (Combinations that gave FIC indices less than 1 were designated “synergistic”)”. The FIC index [1, 12] was 0.281, the Interaction [1, 12] was “Synergistic (Combinations that gave FIC indices less than 1 were designated “synergistic”)” and the FIC index [1, 13] was 0.018. The Interaction [1, 13] was “Synergistic (Combinations that gave FIC indices less than 1 were designated “synergistic”)”, the FIC index [1, 14] was 0.093 and the Interaction [1, 14] was “Synergistic (Combinations that gave FIC indices less than 1 were designated “synergistic”)”. It also gave an FIC [1, 15] of 0.062, an FIC [1, 16] of 0.007 and an FIC [1, 17] of 0.003. It also gave an FIC [1, 18] of 0.031, an FIC [1, 19] of 0.003 and an FIC [1, 20] of 0.031. It also gave an MIC ([2]; Table 1, caprylic acid series) of 0.125 µg/mL, an MIC ([2]; Table 2, propylene glycol monocaprylate series) of 0.125 µg/mL and an MIC ([2]; Table 3, glyceryl monocaprylate series) of 0.125 µg/mL. It also gave an MIC ([2]; Table 4, undecylenic acid (C11) series) of 0.03 µg/mL, an MIC ([2]; Table 5, lauric acid (C12) series) of 0.03 µg/mL and an MIC ([2]; Table 6, propylene glycol monolaurate series) of 0.03 µg/mL. For the same molecule, the “Combination MIC” value [2, 3] was 0.0625 µg/mL, the “Combination MIC” value [2, 4] was 0.0625 µg/mL and the “Combination MIC” value [2, 5] was 0.015 µg/mL. The “Combination MIC” value [2, 6] was 0.007 µg/mL, the “Combination MIC” value [2, 7] was 0.008 µg/mL and the “Combination MIC” value [2, 8] was 0.015 µg/mL. For the same molecule, the FIC index [2, 9] was 0.625, the Interaction [2, 9] was “Synergistic (Combinations that gave FIC indices less than 1 were designated “synergistic”)” and the FIC index [2, 10] was 0.625. For the same molecule, the Interaction [2, 10] was “Synergistic (Combinations that gave FIC indices less than 1 were designated “synergistic”)”, the FIC index [2, 11] was 0.75 and the Interaction [2, 11] was “Synergistic (Combinations that gave FIC indices less than 1 were designated “synergistic”)”. For the same molecule, the FIC index [2, 12] was 0.556, the Interaction [2, 12] was “Synergistic (Combinations that gave FIC indices less than 1 were designated “synergistic”)” and the FIC index [2, 13] was 0.76. The Interaction [2, 13] was “Synergistic (Combinations that gave FIC indices less than 1 were designated “synergistic”)”, the FIC index [2, 14] was 0.74 and the Interaction [2, 14] was “Synergistic (Combinations that gave FIC indices less than 1 were designated “synergistic”)”. The FIC [2, 15] was 0.5, the FIC [2, 16] was 0.5 and the FIC [2, 17] was 0.5. It also gave an FIC [2, 18] of 0.056, an FIC [2, 19] of 0.266 and an FIC [2, 20] of 0.5.

From patent US20190142800A1, “SYNERGISTIC ANTIFUNGAL COMPOSITIONS AND METHODS THEREOF” (VYOME THERAPEUTICS LIMITED, priority 2016, published 2019)
